Data reported in patent US11370798B2 (Vertex Pharmaceuticals Incorporated, priority 2012, dated 2022).

Tested on: HCT116 colorectal cancer cells
Test: Cisplatin sensitization assay (96 h cell viability MTS);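 further: Test-compound concentration that lowers the Cisplatin IC50 by a set fold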
Type: cell-based
Conditions: compound and Cisplatin added simultaneously, Cisplatin sensitization value
Outline: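 Compound and cisplatin added together as a full matrix of 2-fold serial dilutions from a top final concentration of 10 μM; cells incubated 96 h at 37° C, 5% CO2. Viability then read by MTS after 1 h further incubation; sensitization value reported in μM bins.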

SMILES	Cisplatin Sensitization Assay
Nc1nn2cc(F)cnc2c1C(=O)Nc1cncc(F)c1N1CCN2CCOC[C@@H]2C1 [I-N-137, (S)-2-amino-6-fluoro-N-(5-fluoro-4-(hexahydropyrazino[2,1-c][1,4]oxazin-8(1H)-yl)pyridin-3-yl)pyrazolo[1,5-a]pyrimidine-3-carboxamide]	++ (Cisplatin sensitization value>0.02 μM but <0.2 μM)
CN1CCN(C(=O)C2CCN(c3c(F)cncc3NC(=O)c3c(N)nn4cc(Cl)cnc34)CC2)CC1 [I-G-5, 2-amino-6-chloro-N-(5-fluoro-4-(4-(4-methylpiperazine-1-carbonyl)piperidin-1-yl)pyridin-3-yl)pyrazolo[1,5-a]pyrimidine-3-carboxamide]	+++ (Cisplatin sensitization value of <0.02 μM)
CN1CCN(c2c(Cl)cncc2NC(=O)c2c(N)nn3cc(F)cnc23)CC1 [I-N-85, 2-amino-N-(5-chloro-4-(4-methylpiperazin-1-yl)pyridin-3-yl)-6-fluoropyrazolo[1,5-a]pyrimidine-3-carboxamide]	++ (Cisplatin sensitization value>0.02 μM but <0.2 μM)
Cc1ncnn1-c1c(F)cncc1NC(=O)c1c(N)nn2cc(F)cnc12 [I-N-242, 2-amino-6-fluoro-N-(5-fluoro-4-(5-methyl-1H-1,2,4-triazol-1-yl)pyridin-3-yl)pyrazolo[1,5-a]pyrimidine-3-carboxamide]	+ (Cisplatin sensitization value>0.2 μM but <5 μM)
Nc1nn2cc(Cl)cnc2c1C(=O)Nc1cnccc1OCCN1CCOCC1 [I-O-60, 2-amino-6-chloro-N-(4-(2-morpholinoethoxy)pyridin-3-yl)pyrazolo[1,5-a]pyrimidine-3-carboxamide]	++ (Cisplatin sensitization value>0.02 μM but <0.2 μM)
CNCCc1cnn(-c2ccncc2NC(=O)c2c(N)nn3cc(F)cnc23)c1 [I-N-8, 2-amino-6-fluoro-N-(4-(4-(2-(methylamino)ethyl)-1H-pyrazol-1-yl)pyridin-3-yl)pyrazolo[1,5-a]pyrimidine-3-carboxamide]	+ (Cisplatin sensitization value>0.2 μM but <5 μM)
Cc1ccnn1-c1ccncc1NC(=O)c1c(N)nn2cc(F)cnc12 [I-N-223, 2-amino-6-fluoro-N-(4-(5-methyl-1H-pyrazol-1-yl)pyridin-3-yl)pyrazolo[1,5-a]pyrimidine-3-carboxamide]	++ (Cisplatin sensitization value>0.02 μM but <0.2 μM)
Nc1nn2cc(F)cnc2c1C(=O)Nc1cnccc1C1CCN(C2COC2)CC1 [I-C-10, 2-amino-6-fluoro-N-(4-(1-(oxetan-3-yl)piperidin-4-yl)pyridin-3-yl)pyrazolo[1,5-a]pyrimidine-3-carboxamide]	+++ (Cisplatin sensitization value of <0.02 μM)
CN(C)CCc1cnn(-c2ccncc2NC(=O)c2c(N)nn3cc(F)cnc23)c1 [I-N-9, 2-amino-N-(4-(4-(2-(dimethylamino)ethyl)-1H-pyrazol-1-yl)pyridin-3-yl)-6-fluoropyrazolo[1,5-a]pyrimidine-3-carboxamide]	+ (Cisplatin sensitization value>0.2 μM but <5 μM)
CN1C2CCC1CN(C(=O)C1CCN(c3c(F)cncc3NC(=O)c3c(N)nn4cc(F)cnc34)CC1)C2 [I-G-52, 2-amino-6-fluoro-N-(5-fluoro-4-(4-(8-methyl-3,8-diazabicyclo[3.2.1]octane-3-carbonyl)piperidin-1-yl)pyridin-3-yl)pyrazolo[1,5-a]pyrimidine-3-carboxamide]	+++ (Cisplatin sensitization value of <0.02 μM)
N#CCc1cnc2c(C(=O)Nc3cnccc3OC3CCC3)c(N)nn2c1 [I-O-36, 2-amino-6-(cyanomethyl)-N-(4-cyclobutoxypyridin-3-yl)pyrazolo[1,5-a]pyrimidine-3-carboxamide]	+++ (Cisplatin sensitization value of <0.02 μM)
Cc1ncccc1-c1ccncc1NC(=O)c1c(N)nn2cc(F)cnc12 [I-C-20, 2-amino-6-fluoro-N-(2-methyl-[3,4′-bipyridin]-3′-yl)pyrazolo[1,5-a]pyrimidine-3-carboxamide]	+++ (Cisplatin sensitization value of <0.02 μM)
CN1CCN(C(=O)C2CCCN(c3c(F)cncc3NC(=O)c3c(N)nn4cc(F)cnc34)C2)CC1 (centres unmarked) [I-N-289, 2-amino-6-fluoro-N-(5-fluoro-4-(3-(4-methylpiperazine-1-carbonyl)piperidin-1-yl)pyridin-3-yl)pyrazolo[1,5-a]pyrimidine-3-carboxamide]	++ (Cisplatin sensitization value>0.02 μM but <0.2 μM)
CN1CCC(Oc2c(F)cncc2NC(=O)c2c(N)nn3cc(F)cnc23)CC1 [I-O-89, 2-amino-6-fluoro-N-(5-fluoro-4-((1-methylpiperidin-4-yl)oxy)pyridin-3-yl)pyrazolo[1,5-a]pyrimidine-3-carboxamide]	++ (Cisplatin sensitization value>0.02 μM but <0.2 μM)
Nc1nn2cc(Cl)cnc2c1C(=O)Nc1cnccc1N1CCC(N2CCn3cncc3C2)CC1 [I-N-101, 2-amino-6-chloro-N-(4-(4-(5,6-dihydroimidazo[1,5-a]pyrazin-7(8H)-yl)piperidin-1-yl)pyridin-3-yl)pyrazolo[1,5-a]pyrimidine-3-carboxamide]	++ (Cisplatin sensitization value>0.02 μM but <0.2 μM)
Cn1c(-c2ccncc2NC(=O)c2c(N)nn3cc(F)cnc23)cccc1=O [I-C-58, 2-amino-6-fluoro-N-(1-methyl-6-oxo-1,6-dihydro-[2,4′-bipyridin]-3′-yl)pyrazolo[1,5-a]pyrimidine-3-carboxamide]	+++ (Cisplatin sensitization value of <0.02 μM)
COCC1CN(C(=O)C2CCN(c3c(F)cncc3NC(=O)c3c(N)nn4cc(F)cnc34)CC2)C1 [I-G-98, 2-amino-6-fluoro-N-(5-fluoro-4-(4-(3-(methoxymethyl)azetidine-1-carbonyl)piperidin-1-yl)pyridin-3-yl)pyrazolo[1,5-a]pyrimidine-3-carboxamide]	+++ (Cisplatin sensitization value of <0.02 μM)
CS(=O)(=O)C1CCN(c2c(F)cncc2NC(=O)c2c(N)nn3cc(F)cnc23)CC1 [I-N-165, 2-amino-6-fluoro-N-(5-fluoro-4-(4-(methylsulfonyl)piperidin-1-yl)pyridin-3-yl)pyrazolo[1,5-a]pyrimidine-3-carboxamide]	+++ (Cisplatin sensitization value of <0.02 μM)
Cc1nc(C(F)(F)F)cn1-c1ccncc1NC(=O)c1c(N)nn2cc(F)cnc12 [I-N-30, 2-amino-6-fluoro-N-(4-(2-methyl-4-(trifluoromethyl)-1H-imidazol-1-yl)pyridin-3-yl)pyrazolo[1,5-a]pyrimidine-3-carboxamide]	++ (Cisplatin sensitization value>0.02 μM but <0.2 μM)
Nc1nn2cc(F)cnc2c1C(=O)Nc1cncc(C2CC2)c1N1CCN(C2COC2)CC1 [I-N-32, 2-amino-N-(5-cyclopropyl-4-(4-(oxetan-3-yl)piperazin-1-yl)pyridin-3-yl)-6-fluoropyrazolo[1,5-a]pyrimidine-3-carboxamide]	++ (Cisplatin sensitization value>0.02 μM but <0.2 μM)
Nc1nn2cc(Cl)cnc2c1C(=O)Nc1cnccc1OC1CCCNC1 (centres unmarked) [I-O-75, 2-amino-6-chloro-N-(4-(piperidin-3-yloxy)pyridin-3-yl)pyrazolo[1,5-a]pyrimidine-3-carboxamide]	++ (Cisplatin sensitization value>0.02 μM but <0.2 μM)
Nc1nn2cc(F)cnc2c1C(=O)Nc1cncc(F)c1N1CCN2CCOC[C@H]2C1 [I-N-135, (R)-2-amino-6-fluoro-N-(5-fluoro-4-(hexahydropyrazino[2,1-c][1,4]oxazin-8(1H)-yl)pyridin-3-yl)pyrazolo[1,5-a]pyrimidine-3-carboxamide]	+++ (Cisplatin sensitization value of <0.02 μM)
Nc1nn2cc(F)cnc2c1C(=O)Nc1cncc(F)c1N1CCC(C(=O)N2CCN3CCC2CC3)CC1 [I-G-7, N-(4-(4-(1,4-diazabicyclo[3.2.2]nonane-4-carbonyl)piperidin-1-yl)-5-fluoropyridin-3-yl)-2-amino-6-fluoropyrazolo[1,5-a]pyrimidine-3-carboxamide]	+++ (Cisplatin sensitization value of <0.02 μM)
N#CCc1cnc2c(C(=O)Nc3cnccc3OC3CCCCC3)c(N)nn2c1 [I-O-39, 2-amino-6-(cyanomethyl)-N-(4-(cyclohexyloxy)pyridin-3-yl)pyrazolo[1,5-a]pyrimidine-3-carboxamide]	+++ (Cisplatin sensitization value of <0.02 μM)
CN(C)C1CCCN(c2ccncc2NC(=O)c2c(N)nn3cc(Cl)cnc23)C1 (centres unmarked) [I-N-40, 2-amino-6-chloro-N-(4-(3-(dimethylamino)piperidin-1-yl)pyridin-3-yl)pyrazolo[1,5-a]pyrimidine-3-carboxamide]	++ (Cisplatin sensitization value>0.02 μM but <0.2 μM)
Cn1nccc1-c1ccncc1NC(=O)c1c(N)nn2cc(F)cnc12 [I-C-57, 2-amino-6-fluoro-N-(4-(1-methyl-1H-pyrazol-5-yl)pyridin-3-yl)pyrazolo[1,5-a]pyrimidine-3-carboxamide]	+++ (Cisplatin sensitization value of <0.02 μM)
CN1CC2(CCN(c3c(F)cncc3NC(=O)c3c(N)nn4cc(F)cnc34)CC2)OC1=O [I-N-229, 2-amino-6-fluoro-N-(5-fluoro-4-(3-methyl-2-oxo-1-oxa-3,8-diazaspiro[4.5]decan-8-yl)pyridin-3-yl)pyrazolo[1,5-a]pyrimidine-3-carboxamide]	+++ (Cisplatin sensitization value of <0.02 μM)
CN1CCN(C(=O)C2CCN(c3ccncc3NC(=O)c3c(N)nn4cc(F)cnc34)CC2)CC1 [I-G-1, 2-amino-6-fluoro-N-(4-(4-(4-methylpiperazine-1-carbonyl)piperidin-1-yl)pyridin-3-yl)pyrazolo[1,5-a]pyrimidine-3-carboxamide]	+++ (Cisplatin sensitization value of <0.02 μM)
Nc1nn2cc(F)cnc2c1C(=O)Nc1cncc(F)c1N1CCC(C(=O)N2CC(N3CCC3)C2)CC1 [I-G-49, N-(4-(4-([1,3′-biazetidine]-1′-carbonyl)piperidin-1-yl)-5-fluoropyridin-3-yl)-2-amino-6-fluoropyrazolo[1,5-a]pyrimidine-3-carboxamide]	+++ (Cisplatin sensitization value of <0.02 μM)
